# Laboratory results taken from publication PMC12340637, “Transport of Small Aliphatic Amines by Polyspecific Solute Carriers: Deciphering Structure–Function Relationships” (ACS Pharmacology & Translational Science, 2025).
# Marks after values point to notes of the source that are not given here.
# Assays:
# OCT1 (SLC22A1) = biological target: T1, OCT1 (SLC22A1) (Homo sapiens, UniProt O15245); test: Cellular uptake into OCT1-overexpressing HEK293 cells vs EV control cells (HPLC-MS/MS)
# T1 sequence (O15245 1-554): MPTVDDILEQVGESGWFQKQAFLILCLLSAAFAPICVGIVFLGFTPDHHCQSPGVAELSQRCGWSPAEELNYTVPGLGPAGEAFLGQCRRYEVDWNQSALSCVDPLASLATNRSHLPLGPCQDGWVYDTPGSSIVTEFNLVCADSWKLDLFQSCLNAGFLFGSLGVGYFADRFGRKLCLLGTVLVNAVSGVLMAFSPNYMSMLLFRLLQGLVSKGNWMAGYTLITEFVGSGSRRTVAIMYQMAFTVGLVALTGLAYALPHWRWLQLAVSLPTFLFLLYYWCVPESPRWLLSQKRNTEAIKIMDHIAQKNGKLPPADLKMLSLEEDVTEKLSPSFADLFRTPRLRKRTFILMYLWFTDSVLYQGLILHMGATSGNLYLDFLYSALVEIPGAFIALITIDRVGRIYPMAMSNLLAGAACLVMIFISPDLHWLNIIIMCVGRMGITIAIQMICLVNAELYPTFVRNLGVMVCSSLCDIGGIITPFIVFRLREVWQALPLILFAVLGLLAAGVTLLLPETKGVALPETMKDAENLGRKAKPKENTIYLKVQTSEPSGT
# MATE2-K (SLC47A2) [1] = biological target: T2, MATE2-K (SLC47A2) (Homo sapiens, UniProt Q86VL8)
# OCT3 (SLC22A3) = biological target: T3, OCT3 (SLC22A3) (Homo sapiens, UniProt O75751); test: Cellular uptake into OCT3-overexpressing HEK293 cells vs EV control cells (HPLC-MS/MS)
# T3 sequence (O75751 1-556): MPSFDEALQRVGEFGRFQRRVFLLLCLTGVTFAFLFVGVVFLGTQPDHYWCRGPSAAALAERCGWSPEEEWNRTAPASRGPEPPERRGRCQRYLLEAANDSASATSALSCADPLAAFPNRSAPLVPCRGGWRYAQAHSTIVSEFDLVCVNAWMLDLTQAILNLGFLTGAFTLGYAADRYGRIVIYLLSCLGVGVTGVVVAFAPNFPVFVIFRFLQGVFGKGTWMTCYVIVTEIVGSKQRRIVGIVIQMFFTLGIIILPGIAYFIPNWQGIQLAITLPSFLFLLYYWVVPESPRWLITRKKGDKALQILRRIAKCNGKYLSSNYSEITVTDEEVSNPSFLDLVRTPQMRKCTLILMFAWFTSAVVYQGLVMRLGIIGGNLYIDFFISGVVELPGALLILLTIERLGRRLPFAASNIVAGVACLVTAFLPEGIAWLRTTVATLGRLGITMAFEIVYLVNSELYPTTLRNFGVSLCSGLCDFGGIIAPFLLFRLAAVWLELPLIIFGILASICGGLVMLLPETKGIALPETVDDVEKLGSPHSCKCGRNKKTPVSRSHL
# OCT2 (SLC22A2) [2] = biological target: T4, OCT2 (SLC22A2) (Homo sapiens, UniProt O15244); test: Cellular uptake into OCT2-overexpressing HEK293 cells vs EV control cells (HPLC-MS/MS)
# T4 sequence (O15244 1-555): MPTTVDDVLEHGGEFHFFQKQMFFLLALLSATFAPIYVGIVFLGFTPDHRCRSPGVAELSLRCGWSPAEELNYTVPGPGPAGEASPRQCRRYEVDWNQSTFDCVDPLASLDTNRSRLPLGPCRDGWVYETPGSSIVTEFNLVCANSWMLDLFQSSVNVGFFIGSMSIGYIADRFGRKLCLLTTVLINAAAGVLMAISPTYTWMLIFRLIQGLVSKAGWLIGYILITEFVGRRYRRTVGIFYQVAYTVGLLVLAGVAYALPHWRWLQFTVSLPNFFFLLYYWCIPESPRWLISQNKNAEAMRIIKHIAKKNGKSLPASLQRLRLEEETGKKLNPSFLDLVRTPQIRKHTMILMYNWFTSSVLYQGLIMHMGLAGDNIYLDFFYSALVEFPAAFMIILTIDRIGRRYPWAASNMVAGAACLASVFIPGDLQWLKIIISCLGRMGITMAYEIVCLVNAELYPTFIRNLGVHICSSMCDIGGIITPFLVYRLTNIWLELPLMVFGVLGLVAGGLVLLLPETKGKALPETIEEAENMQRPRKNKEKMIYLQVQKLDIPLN
# MATE1 (SLC47A1) = biological target: T5, MATE1 (SLC47A1) (Homo sapiens, UniProt Q96FL8); test: Cellular uptake into MATE1-overexpressing HEK293 cells vs EV control cells (HPLC-MS/MS)
# T5 sequence (Q96FL8 1-570): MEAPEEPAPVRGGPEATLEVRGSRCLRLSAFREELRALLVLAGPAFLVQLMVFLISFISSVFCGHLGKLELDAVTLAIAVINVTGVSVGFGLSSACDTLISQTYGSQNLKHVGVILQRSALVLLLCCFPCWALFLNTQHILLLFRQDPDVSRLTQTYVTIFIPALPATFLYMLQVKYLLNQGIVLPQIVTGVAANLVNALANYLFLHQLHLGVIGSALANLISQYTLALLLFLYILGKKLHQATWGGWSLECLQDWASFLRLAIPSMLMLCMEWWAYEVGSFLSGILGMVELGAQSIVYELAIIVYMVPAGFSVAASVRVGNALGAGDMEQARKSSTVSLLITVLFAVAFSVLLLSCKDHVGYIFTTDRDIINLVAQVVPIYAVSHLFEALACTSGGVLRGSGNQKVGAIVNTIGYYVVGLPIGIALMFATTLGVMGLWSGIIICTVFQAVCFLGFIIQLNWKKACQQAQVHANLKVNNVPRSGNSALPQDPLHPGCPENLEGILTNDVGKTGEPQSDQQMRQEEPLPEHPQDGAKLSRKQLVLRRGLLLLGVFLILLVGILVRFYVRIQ
# OCT2 (SLC22A2) [3] = biological target: T4, OCT2 (SLC22A2); conditions: pH 7.4
# MATE2-K (SLC47A2) [4] = biological target: T2, MATE2-K (SLC47A2); test: Cellular uptake into MATE2-K-overexpressing HEK293 cells vs EV control cells (HPLC-MS/MS)
# OCT2 = biological target: T6, OCT2 (Homo sapiens, UniProt O15244); set-up: method as in Higashi et al. (2014); conditions: ref Higashi et al. (2014); cited from earlier work
# T6 sequence (O15244 1-555): T4 sequence (O15244 1-555)
# OCTs 1–3 = test system: OCTs 1–3; set-up: method as in Sala-Rabanal et al. (2013); conditions: rodent orthologues, ref Sala-Rabanal et al. (2013), cited from earlier work
# [5] = uptake ratio ≥2 = notable transport
# T2 sequence (Q86VL8 1-566 isoform Q86VL8-3): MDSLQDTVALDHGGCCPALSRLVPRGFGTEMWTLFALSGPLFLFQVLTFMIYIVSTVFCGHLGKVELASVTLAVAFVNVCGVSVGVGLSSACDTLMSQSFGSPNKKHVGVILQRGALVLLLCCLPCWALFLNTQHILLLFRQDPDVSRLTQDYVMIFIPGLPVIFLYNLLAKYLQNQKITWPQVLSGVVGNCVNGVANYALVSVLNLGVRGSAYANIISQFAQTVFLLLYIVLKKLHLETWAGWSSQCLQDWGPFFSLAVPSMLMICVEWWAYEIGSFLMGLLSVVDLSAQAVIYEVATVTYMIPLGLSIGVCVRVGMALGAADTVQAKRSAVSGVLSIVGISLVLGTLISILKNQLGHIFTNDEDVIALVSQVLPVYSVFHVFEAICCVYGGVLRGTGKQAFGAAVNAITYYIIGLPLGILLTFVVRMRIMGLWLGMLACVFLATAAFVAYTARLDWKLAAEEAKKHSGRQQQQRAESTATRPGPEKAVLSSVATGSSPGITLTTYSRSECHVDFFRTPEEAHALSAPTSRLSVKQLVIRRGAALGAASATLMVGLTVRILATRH
smiles,measurement,setting,value
"C[C@H](N)CN [(S)-(−)-1,2-diaminopropane]",stereoselectivity OCT1 (uptake ratio of the more strongly transported enantiomer divided by that of the other),OCT1 (SLC22A1); label = favoured enantiomer,1.3-fold for (S)
same,stereoselectivity MATE2K (uptake ratio of the more strongly transported enantiomer divided by that of the other),MATE2-K (SLC47A2) [1],1.1-fold for (S)
same,stereoselectivity OCT3 (uptake ratio of the more strongly transported enantiomer divided by that of the other),OCT3 (SLC22A3); label = favoured enantiomer,1.4-fold for (S)
same,stereoselectivity OCT2 (uptake ratio of the more strongly transported enantiomer divided by that of the other),OCT2 (SLC22A2) [2]; label = favoured enantiomer,1.2-fold for (S)
CC(C)NC(C)C [diisopropylamine],"uptake ratio MATE1 (transporter-overexpressing cells over EV control cells): mean (±SD, N)",MATE1 (SLC47A1),"0.8 (0.02, 3) ^b"
same,"uptake ratio OCT1 (transporter-overexpressing cells over EV control cells): mean (±SD, N)",OCT1 (SLC22A1),"1.4 (0.3, 4)"
same,CLint (±SEM),OCT2 (SLC22A2) [3],20 (±12) μL/mg protein/min
same,"uptake ratio OCT3 (transporter-overexpressing cells over EV control cells): mean (±SD, N)","OCT3 (SLC22A3); 10 μM substrate, 2 min, HEK293","1.1 (0.2, 4)"
same,"uptake ratio MATE2K (transporter-overexpressing cells over EV control cells): mean (±SD, N)",MATE2-K (SLC47A2) [4],"1.2 (0.1, 3)"
same,"uptake ratio OCT2 (transporter-overexpressing cells over EV control cells): mean (±SD, N)",OCT2 (SLC22A2) [2],"5.1 (1.2, 4) ^b"
same,v max (±SEM),OCT2 (SLC22A2) [2],1388 (±157) pmol/mg protein/min
NCCCCNCCCN [spermidine],substrate activity at MATE1 (in words),MATE1 (SLC47A1); [5],did not show any substrate activity
same,substrate activity at OCT1 (in words),OCT1 (SLC22A1); [5],did not show any substrate activity
same,K m of spermidine transport,OCT2,6.76 mM
same,substrate activity at OCT3 (in words),OCT3 (SLC22A3); [5],did not show any substrate activity
same,K m of spermidine transport,OCTs 1–3; OCT-expressing oocytes,1 mM
same,increase in spermidine uptake by OCT-expressing oocytes compared to non-injected oocytes,OCTs 1–3,up to 3 fold
same,substrate activity at MATE2-K (in words),MATE2-K (SLC47A2) [4]; [5],did not show any substrate activity
same,substrate activity at OCT2 (in words),OCT2 (SLC22A2) [2]; [5],did not show any substrate activity
